The source made the active and inactive calls. The rule behind the calls is not given here.
Assays:
NCI-H23 = assay: Antiproliferative activity against human NCI-H23 cells assessed as reduction in cell viability after 4 days by CellTiter-Glo assay
[1] = Octanol/buffer distribution coefficient, logD of the compound at pH 7.4; type: physicochemical
[2] = Intrinsic clearance in mouse microsomes; type: ADME, Microsome
[3] = AUC(0 to 24 hrs) in mouse at 60 mg/kg, po; type: ADME, organism-based; parameters: time < 24 hr, route oral, dose 60 mg/kg; details: in vivo
Wee1-like protein kinase = Wee1-like protein kinase (Homo sapiens, UniProt P30291)
Sequence of Wee1-like protein kinase (P30291 whole entry): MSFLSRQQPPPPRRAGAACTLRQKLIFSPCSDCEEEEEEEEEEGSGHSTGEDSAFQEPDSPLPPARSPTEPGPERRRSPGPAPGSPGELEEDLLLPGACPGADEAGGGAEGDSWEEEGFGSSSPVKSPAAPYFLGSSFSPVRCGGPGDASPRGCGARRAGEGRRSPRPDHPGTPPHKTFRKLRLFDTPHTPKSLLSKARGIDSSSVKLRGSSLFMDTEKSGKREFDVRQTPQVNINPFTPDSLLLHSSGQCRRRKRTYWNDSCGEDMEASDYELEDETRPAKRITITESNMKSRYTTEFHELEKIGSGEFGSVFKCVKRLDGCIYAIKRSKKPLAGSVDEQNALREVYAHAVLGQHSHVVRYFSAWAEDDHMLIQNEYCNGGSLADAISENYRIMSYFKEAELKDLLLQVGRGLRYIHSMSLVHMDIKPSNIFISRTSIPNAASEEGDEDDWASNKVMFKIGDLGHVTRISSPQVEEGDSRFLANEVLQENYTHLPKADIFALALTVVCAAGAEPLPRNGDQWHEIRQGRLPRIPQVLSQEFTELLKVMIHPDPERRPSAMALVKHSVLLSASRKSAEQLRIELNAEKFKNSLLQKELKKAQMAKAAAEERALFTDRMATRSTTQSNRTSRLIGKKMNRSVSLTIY
Description: Displacement of Alexa Fluor labelled kinase tracer178 from WEE1 (unknown origin) incubated for 60 mins by FRET assay

[4] = Intrinsic clearance in human microsomes; type: ADME, Microsome
[5] = AUC(0 to 24 hrs) in rat at 60 mg/kg, po; type: ADME, organism-based; parameters: time < 24 hr, route oral, dose 60 mg/kg; details: in vivo
[6] = AUC(0 to 24 hrs) in mouse at 10 mg/kg, po; type: ADME, organism-based; parameters: time < 24 hr, route oral, dose 10 mg/kg; details: in vivo
[7] = Plasma protein binding in human; type: ADME, cell-free; details: read-out: PPB (converted)
[8] = Permeability of the compound across apical to basolateral side in human Caco-2 cells; type: ADME, cell-based; details: read-out: permeability
[9] = Permeability of the compound across basolateral to apical side in human Caco-2 cells; type: ADME, cell-based; details: read-out: permeability
A-427 [10] = assay: Antitumor activity against human A-427 cells xenografted in SCID mouse assessed as reduction in tumor growth at 80 mg/kg, po administered once daily for 28 days and measured twice per weeks; type: functional, organism-based; details: time 28.0 day
[11] = AUC in mouse plasma at 80 mg/kg, po administered once daily for 28 days; type: ADME, organism-based; parameters: time 28 day, dose 80 mg/kg
A-427 [12] = assay: Antiproliferative activity against human A-427 cells assessed as reduction in cell viability after 3 days by CellTiter-Glo assay; type: functional, cell-based; details: A-427, 72 h
Cytochrome P450 3A4 = Cytochrome P450 3A4 (Homo sapiens, UniProt P08684); assay: Inhibition of CYP3A4 (unknown origin); type: ADME
Sequence of Cytochrome P450 3A4 (P08684 whole entry): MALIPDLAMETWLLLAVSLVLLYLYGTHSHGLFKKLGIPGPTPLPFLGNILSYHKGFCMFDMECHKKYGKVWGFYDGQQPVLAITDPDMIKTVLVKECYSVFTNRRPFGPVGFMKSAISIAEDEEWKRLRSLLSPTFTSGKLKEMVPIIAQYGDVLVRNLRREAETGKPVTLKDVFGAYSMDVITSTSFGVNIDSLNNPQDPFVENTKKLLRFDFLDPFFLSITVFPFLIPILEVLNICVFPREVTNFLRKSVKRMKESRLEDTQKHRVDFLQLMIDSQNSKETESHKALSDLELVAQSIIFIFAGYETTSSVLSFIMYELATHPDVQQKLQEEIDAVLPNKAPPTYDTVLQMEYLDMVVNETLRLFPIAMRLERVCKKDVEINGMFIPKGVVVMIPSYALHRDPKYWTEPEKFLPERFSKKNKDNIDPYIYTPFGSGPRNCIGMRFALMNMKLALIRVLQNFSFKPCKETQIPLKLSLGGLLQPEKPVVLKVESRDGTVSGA

[13] = Efflux ratio of permeability from basolateral to apical side over apical to basolateral side in human Caco-2 cells; type: ADME, cell-based

Row | IC50 (NCI-H23; Homo sapiens, NCI-H23, 96 h) | logD [1] | CLint scaled [2] | AUC(0-t) at 24 h [3] | IC50 (Wee1-like protein kinase) | CLint scaled [4] | Compound | other results
1 | 54 nM | 1.9 | 1400 mL/min/kg | 6.4 µM·h | 2.4 nM |  | C=CCn1c(=O)c2cnc(Nc3ccc4c(c3)CNCC43CC3)nc2n1-c1cccc(C(C)(C)O)n1 | 
2 | 58 nM | 3 | 191 mL/min/kg | 59 µM·h | 3.1 nM | 102 mL/min/kg | C=CCn1c(=O)c2cnc(Nc3ccc(N4CCN(C)CC4)c(C)c3)nc2n1-c1ccc2c(n1)[C@@](O)(CC)CC2 | AUC(0-t) at 24 h [5]: 43 µM·h
3 | 109 nM | 2.7 | 395 mL/min/kg | 14 µM·h | 12 nM | 41 mL/min/kg | C=CCn1c(=O)c2cnc(Nc3cc(N4CCN(C)CC4)c4ccn(C)c4c3)nc2n1-c1ccc2c(n1)[C@@](O)(CC)CC2 | 
4 | 56 nM | 2.9 | 126 mL/min/kg | 35 µM·h | 3.7 nM | 71 mL/min/kg | C=CCn1c(=O)c2cnc(Nc3ccc(N4CCN(C)CC4)cc3)nc2n1-c1ccc2c(n1)[C@@](O)(CC)CCC2 | AUC(0-t) at 24 h [5]: 24 µM·h
5 | 3360 nM |  |  |  | 64 nM |  | CC[C@@]1(O)CCc2ccc(-n3c4nc(Nc5ccc(N6CCN(C)CC6)cc5)ncc4c(=O)n3CC3CC3)nc21 | 
6 | 186 nM | 2.5 | 206 mL/min/kg | 19 µM·h | 3.3 nM | 26 mL/min/kg | C=CCn1c(=O)c2cnc(Nc3ccc(N4CCN(C)CC4)cc3)nc2n1-c1ccc2c(c1)C(C)(O)CC2 (single isomer, unassigned) | AUC(0-t) at 24 h [5]: 17 µM·h
7 | 64 nM | 2.4 | 603 mL/min/kg |  | 2.6 nM |  | C=CCn1c(=O)c2cnc(Nc3ccc4c(c3)CN(C)CC4)nc2n1-c1cccc(C(C)(C)O)n1 | AUC(0-t) at 24 h [6]: 1 µM·h
8 | 122 nM | 2.2 |  | 22 µM·h |  | 34 mL/min/kg | C=CCn1c(=O)c2cnc(Nc3ccc(N4CCN(C)CC4)cc3)nc2n1-c1cccc(C(C)(C)O)n1 [ADAVOSERTIB] | fraction unbound [7]: 0.361; Papp A→B [8]: 3.4 ×10⁻⁶ cm/s; Papp B→A [9]: 42 ×10⁻⁶ cm/s; AUC ([6]; 24 h): 0.8 µM·h; Activity (A-427 [10]): Active; AUC at 672 h [11]: 44 µM·h; IC50 (A-427 [12]): 78 nM
9 | 26 nM | 1.4 | 152 mL/min/kg | 3.9 µM·h | 3.2 nM | 26 mL/min/kg | C=CCn1c(=O)c2cnc(Nc3ccc(N4CCN(C)CC4)cc3)nc2n1-c1ccc2c(n1)[C@@](N)(CC)CC2 | 
10 |  | 3.1 | 1060 mL/min/kg |  |  |  | C=CCn1c(=O)c2cnc(Nc3ccc4c(c3)CN(C)CC43CC3)nc2n1-c1cccc(C(C)(C)O)n1 | AUC(0-t) at 24 h [6]: 0.7 µM·h
11 | 105 nM | 1.3 | 170 mL/min/kg | 2.9 µM·h |  |  | C=CCn1c(=O)c2cnc(Nc3ccc4c(c3)CNCC4)nc2n1-c1cccc(C(C)(C)O)n1 | AUC(0-t) at 24 h [6]: 0.2 µM·h
12 | 185 nM | 2.8 | 126 mL/min/kg | 33 µM·h | 3.6 nM | 71 mL/min/kg | C=CCn1c(=O)c2cnc(Nc3ccc(N4CCN(C)CC4)cc3)nc2n1-c1ccc2c(n1)C(O)(C(F)(F)F)CC2 (single isomer, unassigned) | AUC(0-t) at 24 h [5]: 37 µM·h
13 | 116 nM | 2.7 | 124 mL/min/kg |  | 2.6 nM | 267 mL/min/kg | C=CCn1c(=O)c2cnc(Nc3ccc4c(ccn4C4CCN(C)CC4)c3)nc2n1-c1ccc2c(n1)[C@@](O)(CC)CC2 | 
14 | 5780 nM |  |  |  | 22 nM |  | CC[C@@]1(O)CCc2ccc(-n3c4nc(Nc5ccc(N6CCN(C)CC6)cc5)ncc4c(=O)n3CC=C(F)F)nc21 | 
15 | 81 nM | 2.5 | 186 mL/min/kg | 9.6 µM·h | 2.6 nM |  | C=CCn1c(=O)c2cnc(Nc3ccc4c(c3)CCN(C)C4)nc2n1-c1cccc(C(C)(C)O)n1 | 
16 | 274 nM | 2.2 | 307 mL/min/kg | 1.8 µM·h | 2.5 nM |  | C=CCn1c(=O)c2cnc(Nc3ccc4c(c3)CN(CCO)CC4)nc2n1-c1cccc(C(C)(C)O)n1 | 
17 | 2300 nM | 1.7 | < 38 mL/min/kg |  | 5.7 nM | 12 mL/min/kg | C=CCn1c(=O)c2cnc(Nc3ccc(N4CCN(C)CC4)cc3)nc2n1-c1ccc2c(n1)C(O)CC2 (stereo in doubt; 8) | AUC(0-t) at 24 h [5]: 0.3 µM·h
18 | 270 nM | 2.3 | 108 mL/min/kg |  | 2.6 nM | 47 mL/min/kg | C=CCn1c(=O)c2cnc(Nc3ccc(N4CCN(C)CC4)cc3)nc2n1-c1ccc2c(n1)[C@@](O)(C(F)F)CC2 | 
19 | 177 nM | 2.6 | 66 mL/min/kg | 54 µM·h | 3.7 nM | 18 mL/min/kg | C=CCn1c(=O)c2cnc(Nc3ccc(N4CCN(C)CC4)cc3)nc2n1-c1ccc2c(n1)[C@](C)(O)CCC2 | AUC(0-t) at 24 h [5]: 9.4 µM·h; Activity (A-427 [10]): Active; AUC at 672 h [11]: 83 µM·h; IC50 (A-427 [12]): 155 nM
20 | 186 nM | 2.4 | 78 mL/min/kg |  | 2.9 nM | 39 mL/min/kg | C=CCn1c(=O)c2cnc(Nc3ccc(N4CCN(C)CC4)cc3)nc2n1-c1ccc2c(n1)C(O)(C1CC1)CC2 (single isomer, unassigned) | 
21 | 1530 nM | 2.8 | 293 mL/min/kg |  | 6.4 nM | 48 mL/min/kg | C=CCn1c(=O)c2cnc(Nc3ccc(N4CCN(C)CC4)cc3)nc2n1-c1ccc2c(n1)C(F)(F)CC2 | 
22 | 130 nM | 2.6 | 121 mL/min/kg | 52 µM·h | 2.3 nM | 80 mL/min/kg | C=CCn1c(=O)c2cnc(Nc3ccc(N4CCN(C)CC4)c(C)c3)nc2n1-c1ccc2c(n1)[C@](C)(O)CC2 | AUC(0-t) at 24 h [5]: 40 µM·h
23 | 153 nM | 2.1 | 555 mL/min/kg |  | 2.5 nM | 97 mL/min/kg | C=CCn1c(=O)c2cnc(Nc3ccc4c(c3)CNCC43CC3)nc2n1-c1ccc2c(n1)[C@@](O)(C(F)(F)F)CC2 | 
24 | 4720 nM |  |  |  | > 100 nM |  | C=CC(F)(F)n1c(=O)c2cnc(Nc3ccc(N4CCN(C)CC4)cc3)nc2n1-c1ccc2c(n1)[C@@](O)(CC)CC2 | 
25 |  |  |  |  | 4.3 nM |  | C=CCn1c(=O)c2cnc(Nc3ccc(N4CCN(C)CC4)cc3)nc2n1-c1ccc2c(n1)C(O)CC2 (stereo in doubt; 9) | IC50 (NCI-H23; nci-h23): 2520 nM
26 | 277 nM | 2.6 | 1110 mL/min/kg |  | 3.2 nM | 135 mL/min/kg | C=CCn1c(=O)c2cnc(Nc3cccc(N4CCN(C)CC4)c3)nc2n1-c1ccc2c(n1)[C@@](O)(CC)CC2 | 
27 | 226 nM | 3.4 |  |  | 2 nM | 39 mL/min/kg | Cc1cn(-c2c(Cl)cccc2Cl)c(=O)c2cnc(Nc3ccc(N4CCN(C)CC4)cc3)nc12 | fraction unbound [7]: 0.027; IC50 (Cytochrome P450 3A4): 4500 nM; Papp A→B [8]: 1.5 ×10⁻⁶ cm/s; Papp B→A [9]: 1.8 ×10⁻⁶ cm/s; efflux ratio [13]: 1.1
28 | 212 nM | 1 | 52 mL/min/kg | 1 µM·h | 3.2 nM | 26 mL/min/kg | C=CCn1c(=O)c2cnc(Nc3ccc(N4CCNCC4)cc3)nc2n1-c1ccc2c(n1)[C@@](O)(CC)CC2 | 
29 | 1420 nM | 1.4 | < 38 mL/min/kg |  | 4.6 nM | 17 mL/min/kg | C=CCn1c(=O)c2cnc(Nc3ccc(N4CCN(C)CC4)cc3)nc2n1-c1ccc2c(n1)C(C)(O)CO2 (single isomer, unassigned) | 
30 | 1140 nM | 2 | < 8.6 mL/min/kg | 21 µM·h | 5.2 nM | 18 mL/min/kg | C=CCn1c(=O)c2cnc(Nc3ccc(N4CCN(C)CC4)cc3)nc2n1-c1ccc2c(n1)[C@@](C)(O)CC2 | AUC(0-t) at 24 h [5]: 14 µM·h
